According to ChEMBL document CHEMBL1201862, “PubChem BioAssay data set” (2004):
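All cell lines were grown in 96-well plates and treated with compound for 48 hours. Abbreviation: GI50, concentration required for 50% inhibition of growth.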 Active and inactive are the calls of the source. No stated cut-off is given here; in the data, active = GI50 up to about 1.1 µM and inactive = higher.

Tests used:
Experiment in all cases: NCI tumour cell line growth inhibition, 48 h
786-0 = test system: 786-0
A549 = test system: A549
ACHN = test system: ACHN
BT-549 = test system: BT-549
CAKI-1 = test system: CAKI-1
CCRF-CEM = test system: CCRF-CEM
COLO 205 = test system: COLO 205
DU-145 = test system: DU-145
EKVX = test system: EKVX
HCC 2998 = test system: HCC 2998
HCT-116 = test system: HCT-116
HCT-15 = test system: HCT-15
HL-60 = test system: HL-60
HOP-62 = test system: HOP-62
HOP-92 = test system: HOP-92
HT-29 = test system: HT-29
Hs-578T = test system: Hs-578T
IGROV-1 = test system: IGROV-1
K562 = test system: K562
KM12 = test system: KM12
LOX IMVI = test system: LOX IMVI
M14 = test system: M14
MCF7 = test system: MCF7
MDA-MB-231 = test system: MDA-MB-231
MDA-MB-435 = test system: MDA-MB-435
MDA-N = test system: MDA-N
MOLT-4 = test system: MOLT-4
Malme-3M = test system: Malme-3M
NCI-H226 = test system: NCI-H226
NCI-H23 = test system: NCI-H23
NCI-H460 = test system: NCI-H460
NCI-H522 = test system: NCI-H522
NCI/ADR-RES = test system: NCI/ADR-RES
OVCAR-3 = test system: OVCAR-3
OVCAR-4 = test system: OVCAR-4
OVCAR-5 = test system: OVCAR-5
OVCAR-8 = test system: OVCAR-8
PC-3 = test system: PC-3
RPMI-8226 = test system: RPMI-8226
SF-268 = test system: SF-268
SF-295 = test system: SF-295
SF-539 = test system: SF-539
SK-MEL-28 = test system: SK-MEL-28
SK-MEL-5 = test system: SK-MEL-5
SK-OV-3 = test system: SK-OV-3
SN12C = test system: SN12C
SNB-19 = test system: SNB-19
SNB-75 = test system: SNB-75
SR = test system: SR
SW-620 = test system: SW-620
T47D = test system: T47D
U-251 = test system: U-251
UACC-257 = test system: UACC-257
UACC-62 = test system: UACC-62
UO-31 = test system: UO-31
TK-10 = test system: TK-10
RXF 393 = test system: RXF 393
SK-MEL-2 = test system: SK-MEL-2

SMILES: Cc1n[nH]c(=O)n1Nc1ccccc1
- GI50 (786-0): > 100 µM (inactive)
- GI50 (A549): > 100 µM (inactive)
- GI50 (ACHN): > 100 µM (inactive)
- GI50 (BT-549): > 100 µM (inactive)
- GI50 (CAKI-1): > 100 µM (inactive)
- GI50 (CCRF-CEM): > 100 µM (inactive)
- GI50 (COLO 205): > 100 µM (inactive)
- GI50 (DU-145): > 100 µM (inactive)
- GI50 (EKVX): > 100 µM (inactive)
- GI50 (HCC 2998): > 100 µM (inactive)
- GI50 (HCT-116): > 100 µM (inactive)
- GI50 (HCT-15): > 100 µM
- GI50 (HL-60): > 100 µM (inactive)
- GI50 (HOP-62): > 100 µM (inactive)
- GI50 (HOP-92): > 100 µM (inactive)
- GI50 (HT-29): > 100 µM (inactive)
- GI50 (Hs-578T): > 100 µM (inactive)
- GI50 (IGROV-1): > 100 µM (inactive)
- GI50 (K562): > 100 µM (inactive)
- GI50 (KM12): > 100 µM (inactive)
- GI50 (LOX IMVI): > 100 µM (inactive)
- GI50 (M14): > 100 µM (inactive)
- GI50 (MCF7): > 100 µM (inactive)
- GI50 (MDA-MB-231): > 100 µM (inactive)
- GI50 (MDA-MB-435): > 100 µM (inactive)
- GI50 (MDA-N): > 100 µM (inactive)
- GI50 (MOLT-4): > 100 µM (inactive)
- GI50 (Malme-3M): > 100 µM (inactive)
- GI50 (NCI-H226): > 100 µM (inactive)
- GI50 (NCI-H23): > 100 µM (inactive)
- GI50 (NCI-H460): > 100 µM (inactive)
- GI50 (NCI-H522): > 100 µM (inactive)
- GI50 (NCI/ADR-RES): > 100 µM (inactive)
- GI50 (OVCAR-3): > 100 µM (inactive)
- GI50 (OVCAR-4): > 100 µM (inactive)
- GI50 (OVCAR-5): > 100 µM (inactive)
- GI50 (OVCAR-8): > 100 µM (inactive)
- GI50 (PC-3): > 100 µM (inactive)
- GI50 (RPMI-8226): > 100 µM (inactive)
- GI50 (SF-268): > 100 µM (inactive)
- GI50 (SF-295): > 100 µM (inactive)
- GI50 (SF-539): > 100 µM (inactive)
- GI50 (SK-MEL-28): > 100 µM (inactive)
- GI50 (SK-MEL-5): > 100 µM (inactive)
- GI50 (SK-OV-3): > 100 µM (inactive)
- GI50 (SN12C): > 100 µM (inactive)
- GI50 (SNB-19): > 100 µM (inactive)
- GI50 (SNB-75): > 100 µM (inactive)
- GI50 (SR): > 100 µM (inactive)
- GI50 (SW-620): > 100 µM (inactive)
- GI50 (T47D): > 100 µM (inactive)
- GI50 (U-251): > 100 µM (inactive)
- GI50 (UACC-257): > 100 µM (inactive)
- GI50 (UACC-62): > 100 µM (inactive)
- GI50 (UO-31): > 100 µM (inactive)

SMILES: COc1ccc2c(c1)CCc1[nH]c3ccccc3c1CCCC2
- GI50 (786-0): > 10 µM (inactive)
- GI50 (A549): > 10 µM (inactive)
- GI50 (ACHN): > 10 µM (inactive)
- GI50 (BT-549): > 10 µM (inactive)
- GI50 (CAKI-1): > 10 µM (inactive)
- GI50 (CCRF-CEM): > 10 µM (inactive)
- GI50 (COLO 205): > 10 µM (inactive)
- GI50 (DU-145): > 10 µM (inactive)
- GI50 (HCC 2998): > 10 µM (inactive)
- GI50 (HCT-116): > 10 µM (inactive)
- GI50 (HCT-15): > 10 µM
- GI50 (HL-60): > 10 µM (inactive)
- GI50 (HOP-62): > 10 µM (inactive)
- GI50 (HOP-92): > 10 µM (inactive)
- GI50 (HT-29): > 10 µM (inactive)
- GI50 (Hs-578T): > 10 µM (inactive)
- GI50 (IGROV-1): > 10 µM (inactive)
- GI50 (K562): > 10 µM (inactive)
- GI50 (KM12): > 10 µM (inactive)
- GI50 (LOX IMVI): > 10 µM (inactive)
- GI50 (M14): > 10 µM (inactive)
- GI50 (MCF7): > 10 µM (inactive)
- GI50 (MDA-MB-231): > 10 µM (inactive)
- GI50 (MDA-MB-435): > 10 µM (inactive)
- GI50 (MDA-N): > 10 µM (inactive)
- GI50 (MOLT-4): > 10 µM (inactive)
- GI50 (Malme-3M): > 10 µM (inactive)
- GI50 (NCI-H23): > 10 µM (inactive)
- GI50 (NCI-H522): > 10 µM (inactive)
- GI50 (NCI/ADR-RES): > 10 µM (inactive)
- GI50 (OVCAR-3): > 10 µM (inactive)
- GI50 (OVCAR-4): > 10 µM (inactive)
- GI50 (OVCAR-5): > 10 µM (inactive)
- GI50 (OVCAR-8): > 10 µM (inactive)
- GI50 (PC-3): > 10 µM (inactive)
- GI50 (RPMI-8226): > 10 µM (inactive)
- GI50 (SF-268): > 10 µM (inactive)
- GI50 (SF-295): > 10 µM (inactive)
- GI50 (SF-539): > 10 µM (inactive)
- GI50 (SK-MEL-28): > 10 µM (inactive)
- GI50 (SK-MEL-5): > 10 µM (inactive)
- GI50 (SK-OV-3): > 10 µM (inactive)
- GI50 (SN12C): > 10 µM (inactive)
- GI50 (SNB-19): > 10 µM (inactive)
- GI50 (SNB-75): > 10 µM (inactive)
- GI50 (SR): > 10 µM (inactive)
- GI50 (SW-620): > 10 µM (inactive)
- GI50 (T47D): > 10 µM (inactive)
- GI50 (TK-10): > 10 µM (inactive)
- GI50 (U-251): > 10 µM (inactive)
- GI50 (UACC-257): > 10 µM (inactive)
- GI50 (UACC-62): > 10 µM (inactive)

SMILES: CCOC(=O)C1=NN(c2ccc(C)cc2)C2=CC(C)=NN(C)C(=S)N21
- GI50 (A549): 70.6 µM (inactive)
- GI50 (ACHN): 43.5 µM (inactive)
- GI50 (BT-549): > 100 µM (inactive)
- GI50 (CAKI-1): 24.4 µM (inactive)
- GI50 (CCRF-CEM): > 100 µM (inactive)
- GI50 (COLO 205): > 100 µM (inactive)
- GI50 (DU-145): > 100 µM (inactive)
- GI50 (EKVX): 81.1 µM (inactive)
- GI50 (HCC 2998): > 100 µM (inactive)
- GI50 (HCT-116): 31.1 µM (inactive)
- GI50 (HCT-15): > 100 µM
- GI50 (HL-60): > 100 µM (inactive)
- GI50 (HOP-92): > 10 µM (inactive)
- GI50 (HT-29): > 100 µM (inactive)
- GI50 (Hs-578T): 48.5 µM (inactive)
- GI50 (IGROV-1): > 100 µM (inactive)
- GI50 (K562): > 100 µM (inactive)
- GI50 (KM12): > 100 µM (inactive)
- GI50 (LOX IMVI): 26.9 µM (inactive)
- GI50 (M14): > 100 µM (inactive)
- GI50 (MCF7): > 10 µM (inactive)
- GI50 (MDA-MB-231): 82.4 µM (inactive)
- GI50 (MDA-MB-435): > 100 µM (inactive)
- GI50 (MDA-N): > 100 µM (inactive)
- GI50 (MOLT-4): > 100 µM (inactive)
- GI50 (NCI-H23): 30.1 µM (inactive)
- GI50 (NCI-H460): > 100 µM (inactive)
- GI50 (NCI-H522): 12.2 µM (inactive)
- GI50 (NCI/ADR-RES): > 100 µM (inactive)
- GI50 (OVCAR-3): 60 µM (inactive)
- GI50 (OVCAR-4): > 100 µM (inactive)
- GI50 (OVCAR-5): 88.5 µM (inactive)
- GI50 (OVCAR-8): 42.9 µM (inactive)
- GI50 (PC-3): > 100 µM (inactive)
- GI50 (RPMI-8226): > 100 µM (inactive)
- GI50 (RXF 393): 12.6 µM (inactive)
- GI50 (SF-268): 85.5 µM (inactive)
- GI50 (SF-295): > 100 µM (inactive)
- GI50 (SF-539): 64 µM (inactive)
- GI50 (SK-MEL-28): > 100 µM (inactive)
- GI50 (SK-MEL-2): > 100 µM (inactive)
- GI50 (SK-MEL-5): > 100 µM (inactive)
- GI50 (SK-OV-3): 70.3 µM (inactive)
- GI50 (SN12C): > 100 µM (inactive)
- GI50 (SNB-19): > 100 µM (inactive)
- GI50 (SNB-75): 23.1 µM (inactive)
- GI50 (SR): > 100 µM (inactive)
- GI50 (SW-620): 54.2 µM (inactive)
- GI50 (T47D): 26.4 µM (inactive)
- GI50 (TK-10): 36.1 µM (inactive)
- GI50 (U-251): 38.5 µM (inactive)
- GI50 (UACC-257): > 100 µM (inactive)
- GI50 (UACC-62): 31.9 µM (inactive)
- GI50 (UO-31): > 100 µM (inactive)
